pIC50: −log10 of the molar value.

This assay relates to NCI-H295R. Put plainly: IC50 (antiproliferative, ATP content). The settings on record: 48 h. In short, it runs like this:
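Cell viability of adrenocortical carcinoma cells was assessed as ATP by CellTiter-Glo luminescence. Cells at 1500 per well in 1536-well plates, in serum-free DMEM with ITS, received compounds by pin transfer at 8 final concentrations (0.6 nM–46 µM) after overnight culture and were then held 48 h at 37 °C, 5% CO2. IC50 was calculated by logistic fitting against vehicle and positive-control wells, compounds with no concentration response being recorded as above the top dose.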
Take `CC(C)c1nc(N(C)S(C)(=O)=O)nc(-c2ccc(F)cc2)c1/C=C/C(O)CC(O)CC(=O)[O-].CC(C)c1nc(N(C)S(C)(=O)=O)nc(-c2ccc(F)cc2)c1/C=C/C(O)CC(O)CC(=O)[O-].[Ca+2]` (stereo not drawn): the pIC50 was under 4.34.
Next, `CS(=O)(=O)OCCCCOS(C)(=O)=O`: under 4.34; `CC(=O)O[C@H]1C[C@@H]2CC[C@@H]3[C@H](CC[C@@]4(C)[C@H]3C[C@H]([N+]3(C)CCCCC3)[C@@H]4OC(C)=O)[C@@]2(C)C[C@@H]1[N+]1(C)CCCCC1.[Br-].[Br-]`: under 4.34.
The figure for `c1ccc(-c2nc[nH]c2-c2ccccc2)cc1` is under 4.34.
Next, `CO/N=C(\C(=O)N[C@@H]1C(=O)N2C(C(=O)O)=C(CSc3cnns3)CS[C@H]12)c1csc(N)n1.Cl`: under 4.34; `CC(C)[N+](C)(C)CC(O)COc1cccc2ccccc12.[Cl-]` (stereo not drawn): under 4.34; `NCCNCCNCCNCCN`: under 4.34.
`O=[C@](N[C@@H](C)CO)[C@@H](C4)C=C(C2=C1C(C3)=CNC1=CC=C2)[C@]3([H])N4C` showed a pIC50 of under 4.34.
`O=C(O[C@@H]5C4CCN(C5)CC4)N2[C@@H]([C@]3=CC=CC=C3)C1=CC=CC=C1CC2.Cl` showed a pIC50 of under 4.34.
Consider `NC(=O)Oc1ccc(Cc2ccccc2)cc1`, for which the pIC50 is under 4.34.
`O=[C@](COC(C)=O)[C@](CC4)(O)[C@]2(C)[C@]4([H])[C@]1([H])CCC([C@@](C=C3)(C)[C@]([H])1[C@@H](O)C2)=CC3=O` had a pIC50 of under 4.34.
The figure for `O=C(CS(=O)Cc1ccco1)NC/C=C\COc1cc(CN2CCCCC2)ccn1` (stereo not drawn) is under 4.34; for `O=C([O-])c1cc(=O)c2c(OCC(O)COc3cccc4oc(C(=O)[O-])cc(=O)c34)cccc2o1.[Na+].[Na+]` it is under 4.34; for `CC(C)NCC(O)c1cc(O)cc(O)c1.CC(C)NCC(O)c1cc(O)cc(O)c1.O=S(=O)(O)O` (stereo not drawn) it is under 4.34.
Next, `CCN1C(=O)NC(c2ccccc2)C1=O` (stereo not drawn): under 4.34; `CCn1cc(C(=O)O)c(=O)c2cc3c(cc21)OCO3`: under 4.34.
The figure for `C[C@]12CC[C@H]3[C@@H](CCC4=C(O)C(=O)CC[C@@H]43)[C@@H]1CC[C@@H]2OC(=O)CCC1CCCC1` is under 4.34; for `NC(CO)(CO)CO` it is under 4.34.
The molecule `OCC(=O)[C@@]3(O)CC[C@H]2[C@@H]4CC\C1=C\C(=O)CC[C@]1(C)[C@H]4C(=O)C[C@@]23C` had a pIC50 of under 4.34.
The figure for `Cc1cccc(C)c1NC(=O)NC1=CCCN1C` is under 4.34; for `Cc1ccccc1N1C(=O)c2cc(S(N)(=O)=O)c(Cl)cc2NC1C` (stereo not drawn) it is under 4.34; for `CCCCOC(=O)c1ccc(O)cc1` it is under 4.34.
The figure for `COc1c2occc2cc2ccc(=O)oc12` is under 4.34; for `CCCCCCCCCCCCCCCCOP(=O)([O-])OCC[N+](C)(C)C` it is under 4.34; for `CCCn1c(=O)[nH]c(=O)c2[nH]cnc21` it is under 4.34.
`CCOC(=O)[C@@H](N)CS.Cl` had a pIC50 of under 4.34.
The figure for `CNC(C)C(O)c1ccc(O)cc1.Cl` (stereo not drawn) is under 4.34; for `O=C1[C@H]([C@H](C)C)CC[C@@H](C)C1` it is under 4.34.
As for `O.O.O.O.O=C1[O][Mg]2([O]C(=O)c3ccccc3[O]2)[O]c2ccccc21`, the pIC50 was under 4.34.
`O=c1[nH]c(=O)n(C2CCCO2)cc1F` (stereo not drawn): the pIC50 was under 4.34.
The figure for `O=[C@]([C@@H]3N([C@@H]2SC(C)3C)C([C@H]2NC([C@@H](C1=CC=C(C=C1)O)N)=O)=O)O` is under 4.34.
Next, `CC[N+](C)(CC)CCOC(=O)C(O)(c1ccccc1)C1CCCCC1.[Br-]` (stereo not drawn): under 4.34; `C[C@@H]1[C@H](O)[C@@H](C)/C=C/C=C/C=C/C=C/C=C/C=C/C=C/[C@H](O[C@@H]2O[C@H](C)[C@@H](O)[C@H](N)[C@@H]2O)C[C@@H]2O[C@](O)(C[C@@H](O)C[C@@H](O)[C@H](O)CC[C@@H](O)C[C@@H](O)CC(=O)O[C@H]1C)C[C@H](O)[C@H]2C(=O)O`: under 4.34.

Broadly, the pIC50 is the IC50 on a negative log10 scale, so that one unit is a factor of ten.

The values above are taken from the supplement of paper PMC3493320.
